Numbers after ± are expanded uncertainties.
Tests used:
[1] = for viscosity / speed of sound / mass density: 101.33 kPa, Liquid; for viscosity: Falling or rolling sphere viscometry; for speed of sound: Sing-around technique in a fixed-path interferometer; for mass density: Vibrating tube method
[2] = Molar enthalpy of transition or fusion; conditions: Crystal; DSC

Row | Compound | viscosity ([1]; 293.15 K) [mPa·s] | speed of sound ([1]; 293.15 K) [m/s] | mass density ([1]; 293.15 K) [kg/m3] | viscosity ([1]; 298.15 K) [mPa·s] | speed of sound ([1]; 298.15 K) [m/s] | mass density ([1]; 298.15 K) [kg/m3] | viscosity ([1]; 303.15 K) [mPa·s] | speed of sound ([1]; 303.15 K) [m/s] | mass density ([1]; 303.15 K) [kg/m3] | viscosity ([1]; 308.15 K) [mPa·s] | speed of sound ([1]; 308.15 K) [m/s] | mass density ([1]; 308.15 K) [kg/m3] | viscosity ([1]; 313.15 K) [mPa·s] | speed of sound ([1]; 313.15 K) [m/s] | mass density ([1]; 313.15 K) [kg/m3] | viscosity ([1]; 318.15 K) [mPa·s] | speed of sound ([1]; 318.15 K) [m/s] | mass density ([1]; 318.15 K) [kg/m3] | viscosity ([1]; 323.15 K) [mPa·s] | speed of sound ([1]; 323.15 K) [m/s] | other results
1 | CCC[NH3+].O=C[O-] [propylammonium formate] | 96.77 ± 3.7 | 1553.1 ± 5.2 | 996.18 ± 5.4 | 78.6 ± 2.8 | 1542.7 ± 5.2 | 993.47 ± 5.3 | 63.58 ± 2.1 | 1532.4 ± 5.1 | 990.77 ± 5.3 | 52.67 ± 1.7 | 1522.2 ± 5.1 | 988.09 ± 5.3 | 43.97 ± 1.4 | 1512 ± 5.1 | 985.42 ± 5.2 | 37.16 ± 1.2 | 1501.8 ± 5.1 | 982.75 ± 5.2 | 31.43 ± 1 | 1491.7 ± 5.1 | mass density ([1]; 323.15 K): 980.1 ± 5.2 kg/m3; viscosity ([1]; 328.15 K): 26.92 ± 0.88 mPa·s; speed of sound ([1]; 328.15 K): 1481.6 ± 5.1 m/s; mass density ([1]; 328.15 K): 977.45 ± 5.2 kg/m3; viscosity ([1]; 333.15 K): 23.32 ± 0.77 mPa·s; speed of sound ([1]; 333.15 K): 1471.7 ± 5.1 m/s; mass density ([1]; 333.15 K): 974.8 ± 5.1 kg/m3; viscosity ([1]; 338.15 K): 20.18 ± 0.66 mPa·s; speed of sound ([1]; 338.15 K): 1461.8 ± 5.1 m/s; mass density ([1]; 338.15 K): 972.15 ± 5.1 kg/m3; viscosity ([1]; 343.15 K): 17.57 ± 0.58 mPa·s; speed of sound ([1]; 343.15 K): 1452 ± 5.1 m/s; mass density ([1]; 343.15 K): 969.49 ± 5.1 kg/m3; Normal melting temperature ([1]; Crystal, DTA): 34.00 ± 4 °C; Molar enthalpy of transition or fusion [2]: 2.17 ± 0.12 kcal/mol
2 | CC(=O)[O-].[NH3+]CCCO [3-hydroxypropylammonium acetate] | 4261.7 ± 650 | 1779.8 ± 5.2 | 1114.58 ± 6.7 | 2827 ± 390 | 1770.8 ± 5.2 | 1112.02 ± 6.7 | 1937 ± 240 | 1761.9 ± 5.2 | 1109.46 ± 6.7 | 1348.5 ± 150 | 1753.3 ± 5.2 | 1106.91 ± 6.7 | 970.9 ± 100 | 1745.2 ± 5.2 | 1104.36 ± 6.6 | 714.44 ± 66 | 1736.4 ± 5.2 | 1101.8 ± 6.6 | 526 ± 44 | 1727.8 ± 5.2 | mass density ([1]; 323.15 K): 1099.24 ± 6.5 kg/m3; viscosity ([1]; 328.15 K): 400.11 ± 30 mPa·s; speed of sound ([1]; 328.15 K): 1719.3 ± 5.2 m/s; mass density ([1]; 328.15 K): 1096.68 ± 6.5 kg/m3; viscosity ([1]; 333.15 K): 305.97 ± 20 mPa·s; speed of sound ([1]; 333.15 K): 1710.3 ± 5.2 m/s; mass density ([1]; 333.15 K): 1094.13 ± 6.5 kg/m3; viscosity ([1]; 338.15 K): 238.21 ± 14 mPa·s; speed of sound ([1]; 338.15 K): 1702.8 ± 5.2 m/s; mass density ([1]; 338.15 K): 1091.59 ± 6.5 kg/m3; viscosity ([1]; 343.15 K): 190.4 ± 9.9 mPa·s; speed of sound ([1]; 343.15 K): 1693.6 ± 5.2 m/s; mass density ([1]; 343.15 K): 1089.03 ± 6.4 kg/m3; Glass transition temperature ([1]; DTA): -26.00 ± 4 °C
3 | O=C[O-].[NH3+]CCCO [3-hydroxypropylammonium formate] | 339.04 ± 23 | 1824.3 ± 5.2 | 1148.29 ± 7.2 | 257.15 ± 16 | 1816.3 ± 5.2 | 1145.84 ± 7.1 | 198.39 ± 11 | 1808.3 ± 5.2 | 1143.39 ± 7.1 | 154.49 ± 7.3 | 1800.5 ± 5.2 | 1140.95 ± 7.1 | 122.56 ± 5.2 | 1792.3 ± 5.2 | 1138.53 ± 7 | 98.17 ± 3.8 | 1785.2 ± 5.2 | 1136.12 ± 7 | 79.84 ± 2.8 | 1776.4 ± 5.2 | mass density ([1]; 323.15 K): 1133.73 ± 7 kg/m3; viscosity ([1]; 328.15 K): 65.37 ± 2.2 mPa·s; speed of sound ([1]; 328.15 K): 1768.3 ± 5.2 m/s; mass density ([1]; 328.15 K): 1131.34 ± 7 kg/m3; viscosity ([1]; 333.15 K): 53.98 ± 1.7 mPa·s; speed of sound ([1]; 333.15 K): 1760.4 ± 5.2 m/s; mass density ([1]; 333.15 K): 1128.97 ± 6.9 kg/m3; viscosity ([1]; 338.15 K): 45.36 ± 1.5 mPa·s; speed of sound ([1]; 338.15 K): 1752.5 ± 5.2 m/s; mass density ([1]; 338.15 K): 1126.61 ± 6.9 kg/m3; viscosity ([1]; 343.15 K): 38.38 ± 1.3 mPa·s; speed of sound ([1]; 343.15 K): 1744.7 ± 5.2 m/s; mass density ([1]; 343.15 K): 1124.25 ± 6.9 kg/m3; Glass transition temperature ([1]; DTA): -24.00 ± 4 °C
4 | CC(=O)[O-].CCC[NH3+] [propylammonium acetate] | 932.22 ± 95 | 1517.1 ± 5.1 | 989.97 ± 5.3 | 627.41 ± 56 | 1508 ± 5.1 | 986.91 ± 5.3 | 435.42 ± 34 | 1497.1 ± 5.1 | 983.85 ± 5.2 | 309.95 ± 21 | 1487.6 ± 5.1 | 980.77 ± 5.2 | 226.35 ± 13 | 1477 ± 5.1 | 977.69 ± 5.2 | 167.69 ± 8.2 | 1467.8 ± 5.1 | 974.6 ± 5.1 | 128.15 ± 5.5 | 1457.5 ± 5.1 | mass density ([1]; 323.15 K): 971.5 ± 5.1 kg/m3; viscosity ([1]; 328.15 K): 99.03 ± 3.8 mPa·s; speed of sound ([1]; 328.15 K): 1447.9 ± 5.1 m/s; mass density ([1]; 328.15 K): 968.4 ± 5.1 kg/m3; viscosity ([1]; 333.15 K): 78.03 ± 2.7 mPa·s; speed of sound ([1]; 333.15 K): 1437.3 ± 5.1 m/s; mass density ([1]; 333.15 K): 965.3 ± 5 kg/m3; viscosity ([1]; 338.15 K): 61.96 ± 2 mPa·s; speed of sound ([1]; 338.15 K): 1427.4 ± 5.1 m/s; mass density ([1]; 338.15 K): 962.17 ± 5 kg/m3; viscosity ([1]; 343.15 K): 50.02 ± 1.6 mPa·s; speed of sound ([1]; 343.15 K): 1417.5 ± 5.1 m/s; mass density ([1]; 343.15 K): 959.03 ± 5 kg/m3; Glass transition temperature ([1]; DTA): -26.00 ± 4 °C
5 | O=C([O-])C(F)(F)F.[NH3+]CCCO [3-hydroxypropylammonium trifluoroacetate] | 1430.2 ± 170 | 1487.9 ± 7.1 | 1311.44 ± 19 | 970.33 ± 100 | 1476.5 ± 7.1 | 1307.81 ± 19 | 677.32 ± 64 | 1465.5 ± 7.1 | 1304.2 ± 19 | 483.03 ± 41 | 1454.9 ± 7.1 | 1300.58 ± 19 | 352.31 ± 26 | 1444.5 ± 7.1 | 1296.96 ± 19 | 262.07 ± 17 | 1434.3 ± 7.1 | 1293.34 ± 18 | 198.79 ± 12 | 1424.2 ± 7.1 | mass density ([1]; 323.15 K): 1289.72 ± 18 kg/m3; viscosity ([1]; 328.15 K): 153.05 ± 8.1 mPa·s; speed of sound ([1]; 328.15 K): 1413.9 ± 7.1 m/s; mass density ([1]; 328.15 K): 1286.1 ± 18 kg/m3; viscosity ([1]; 333.15 K): 119.86 ± 5.8 mPa·s; speed of sound ([1]; 333.15 K): 1403.6 ± 7.1 m/s; mass density ([1]; 333.15 K): 1282.49 ± 18 kg/m3; viscosity ([1]; 338.15 K): 94.92 ± 4.3 mPa·s; speed of sound ([1]; 338.15 K): 1393.2 ± 7.1 m/s; mass density ([1]; 338.15 K): 1278.88 ± 18 kg/m3; viscosity ([1]; 343.15 K): 76.72 ± 3.3 mPa·s; speed of sound ([1]; 343.15 K): 1382.8 ± 7.1 m/s; mass density ([1]; 343.15 K): 1275.25 ± 18 kg/m3; Glass transition temperature ([1]; DTA): -28.00 ± 4 °C

Source: the NIST ThermoML archive (doi:10.1016/j.jct.2014.01.004)
